Reference: publication PMC6123015 (Biochemistry, 2018)

Target: T1, macrophage migration inhibitory factor-1 (MIF-1) (Homo sapiens, UniProt P14174)
T1 sequence (P14174 2-115): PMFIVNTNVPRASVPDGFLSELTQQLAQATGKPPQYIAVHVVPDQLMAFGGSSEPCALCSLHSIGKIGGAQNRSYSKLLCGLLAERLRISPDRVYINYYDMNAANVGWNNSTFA
Assay: HPP tautomerase inhibition kinetics with purified protein
Format: biochemical

Q: `O=C(O)c1cccc(-c2cc(C(=O)O)ncc2C(=O)O)c1` [4-CPPC, 4-(3-Carboxyphenyl)-2,5pyridinedicarboxylic acid] was tested. Which Ki did it give?
A: 431 ± 37 µM
